One test deals with Daudi (Burkitt Lymphoma) cells. The experiment in a line: Intracellular Lactate Accumulation Assay (Lactate-Glo). The test is classed as cell-based, human. To be noted: Homo sapiens; Daudi cells, 2 h treatment, intracellular lactate accumulation; read-out: LactateGlo EC50. The method, then: Intracellular lactate accumulation after a 2 h treatment with compounds of the present invention was measured in Daudi (Burkitt Lymphoma) cells using the Lactate-Glo Assay (Promega).
Daudi cells were seeded at 7,500 cells per well in 150 μL of growth medium (RPMI-1640 with 2 mM GlutaMAX+10% FBS) in clear, 96-well, flat-bottom microplates, and incubated overnight (37° C., 5% CO2). Compounds of the present invention were added using an INTEGRA VIAFLO 96 (8 point, 3-fold serial dilution, top concentration 1, 10, or 20 μM, 0.4% final DMSO concentration). After a 2 h incubation (37° C., 5% CO2) microplates containing cells were washed twice with 150 μL ice-cold PBS, resuspended in 25 μL ice-cold PBS containing 12.5 μL 0.6N HCl, and placed on a microplate shaker for 5 min to lyse the cells. Following lysis, 12.5 μL 1M Trizma base was added to neutralize the suspension, and microplates were returned to the microplate shaker for 1 min. Plates were sealed and stored at −20° C. until further processing. On the day of the assay, microplates were thawed for 45 min at room temperate and 50 μL Lactate Detection Reagent (prepared as specified by manufacturer) was added to each well. Microplates were placed on a plate shaker for 1 min and incubated at room temperature for 1 h. Luminescence was measured using a BioTek Cytation 5 Multi-Mode Reader. Curve fitting and calculation of EC50 was performed using GraphPad Prism.
In addition, Daudi human lymphoma cells were treated with a titration of Compound 67A for 4 h, then intracellular lactate was measured via LactateGlo (FIG. 2). Compound 67A treatment elevates intracellular lactate (FIGS. 3-5). […] Inhibiting MCT function in glycolytic cancer cells leads to an accumulation of intracellular lactate that impairs glycolysis and inhibits tumor cell growth, thereby making MCTs an attractive target for cancer therapy. Compound 67A inhibits the import of MCT ligands into cells, and induces dose-dependent intracellular lactate accumulation that correlates with cytotoxicity. MCT4 expression inversely correlates with lactate accumulation and the extent of Compound 67A cytotoxicity in cells.
On to `CC(C)OC(=O)Nc1ccc(-c2cnc([C@H]3CC[C@@H](NC(=O)OC(C)C)CC3)s2)c(S(=O)(=O)NC(C)(C)C)c1` [Compound 67B], for which the EC50 (in general, the midpoint of the concentration-response curve) was greater than 5000 nM.

For the molecule `CNC(=N)Nc1ccc(-c2cnc(C3CCC(NC(=O)OC(C)C)CC3)s2)c(S(=O)(=O)NC(C)(C)C)c1` (stereo not drawn) [Compound 75], the EC50 was greater than 5000 nM.

As to `COC(=O)NC1CCC(c2ncc(-c3ccc(NC(=O)OC(C)C)cc3S(=O)(=O)NC(C)(C)C)s2)CC1` (stereo not drawn) [Compound 76], the EC50 was greater than 5000 nM.

Consider `CC(C)OC(=O)NC1CCC(c2ncc(-c3ccc(NC(=O)NCc4ccccc4)cc3S(=O)(=O)NC(C)(C)C)s2)CC1` (stereo not drawn) [Compound 62B], for which the EC50 is less than 50 nM.

The target of another test is T1, human MCT1 (Homo sapiens, UniProt P53985).
T1 construct: host or cells: MDCK-II (canine) cells, transient co-transfection
T1 sequence (P53985 1-500): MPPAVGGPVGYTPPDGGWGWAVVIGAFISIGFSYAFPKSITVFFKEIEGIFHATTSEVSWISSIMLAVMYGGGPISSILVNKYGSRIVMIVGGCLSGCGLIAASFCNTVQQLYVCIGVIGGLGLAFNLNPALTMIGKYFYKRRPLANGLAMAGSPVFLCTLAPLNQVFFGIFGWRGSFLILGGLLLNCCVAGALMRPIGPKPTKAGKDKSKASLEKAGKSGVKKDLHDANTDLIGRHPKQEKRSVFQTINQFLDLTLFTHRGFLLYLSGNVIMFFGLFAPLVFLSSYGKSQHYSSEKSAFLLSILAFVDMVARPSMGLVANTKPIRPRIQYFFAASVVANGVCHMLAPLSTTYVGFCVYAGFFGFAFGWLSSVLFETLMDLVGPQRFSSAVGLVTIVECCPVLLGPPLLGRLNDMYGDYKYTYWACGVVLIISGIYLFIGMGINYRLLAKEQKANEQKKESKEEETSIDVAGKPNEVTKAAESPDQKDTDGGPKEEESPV
T1 sequence (P35613 140-385 partner limits assumed): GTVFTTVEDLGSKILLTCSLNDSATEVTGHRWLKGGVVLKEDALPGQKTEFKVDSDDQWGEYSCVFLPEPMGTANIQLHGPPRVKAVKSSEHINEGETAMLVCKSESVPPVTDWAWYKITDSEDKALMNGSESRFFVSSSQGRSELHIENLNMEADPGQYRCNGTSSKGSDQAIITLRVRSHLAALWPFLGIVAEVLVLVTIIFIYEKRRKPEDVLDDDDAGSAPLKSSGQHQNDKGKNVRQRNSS
The experiment in a line: MCT1 Transport Inhibition Assay (TPGA uptake, LC-MS/MS). As to conditions: MDCK-II cells overexpressing human MCT1, TPGA transport; read-out: BioIVT MCT1 Transporter IC50. The test is classed as cell-based. Here is the method:
Inhibition of MCT1 transport after treatment with compounds of the present invention was measured in MDCK-II cells that overexpress human MCT1 by quantifying the transport of 2-Thiophene-glycoxylic acid (TPGA) into cells using LC-MS/MS.
MDCK-II cells are seeded at 60,000 cells per well in growth medium (low-glucose DMEM+10% FBS) in 96-well trans-well membrane plates, and incubated overnight (37° C., 5% CO2). Cells were co-transfected with mammalian expression constructs coding for MCT1 and CD147 at a 2:1 ratio or an empty vector control (GFP) and then incubated for 48 h (37° C., 5% CO2). Cells were washed 3 times with HBSS and cells were preincubated with inhibitors or vehicle control at room temperature in HBSS for 30 min with orbital shaking (60 rpm). HBSS was aspirated from the wells and replaced with HBSS with 25 mM Bis-Tris pH5.5+inhibitor or vehicle control+500 μM TPGA and incubated for 1 min at room temperature with orbital shaking (60 rpm). Both the apical and basolateral side of the trans-well insert were washed 4 times with ice-cold PBS. Cells were lysed with 60 μL of cell extraction solution, and the amount of TPGA in each well was quantified in triplicate by LC-MS/MS. The MCT1-mediated uptake rate was calculated using the following equation: […]
Percent inhibition for each concentration of inhibitor tested was calculated using the following equation: […]
Curves were fit to the calculated percent inhibition for each inhibitor, and the IC50 representing the concentration of inhibitor at which MCT1 is inhibited by 50% was calculated from this curve.
Canine MDCKII cells expressing human MCT1 were treated with a titration of Compound 67A, and import of the MCT1 substrate, 2-TPGA was measured by LC-MS (FIG. 1).
For the molecule `CC(C)OC(=O)Nc1ccc(-c2cnc([C@H]3CC[C@@H](NC(=O)OC(C)C)CC3)s2)c(S(=O)(=O)NC(C)(C)C)c1` [Compound 67B], the IC50 (in general, the concentration at which inhibition is half-maximal) was 1000 to 5000 nM.

Take `CC(C)OC(=O)N[C@H]1CC[C@H](c2ncc(-c3ccc(NC(=O)NCc4ccccc4)cc3S(=O)(=O)NC(C)(C)C)s2)CC1` [Compound 62B]: the IC50 lay within 150 to 1000 nM.

Source of the values: patent US20250186404A1, “METHODS OF USING A (THIAZOLYL)BENZENESULFONAMIDE DERIVATIVE” (Cyteir Therapeutics, Inc., priority 2023, published 2025).
